Biological target: T1, human full-length MKNK1 (Homo sapiens, UniProt Q9BUB5, T385D)
T1 construct: purchased Carna Biosciences 02-145; host or cells: insect cells (baculovirus expression system)
Experiment: MKNK1 kinase high ATP assay (TR-FRET)
Type: biochemical
Conditions: high ATP (2 mM final), 15 min preincubation with enzyme, GST-MKNK1 (T344D)
Experimental: MKNK1-inhibitory activity at high ATP of compounds of the present invention after their preincubation with MKNK1 was quantified employing the TR-FRET-based MKNK1 high ATP assay as described in the following paragraphs.
A recombinant fusion protein of Glutathione-S-Transferase (GST, N-terminally) and human full-length MKNK1 (amino acids 1-424 and T344D of accession number BAA 19885.1), expressed in insect cells using baculovirus expression system and purified via glutathione sepharose affinity chromatography, was purchased from Carna Biosciences (product no 02-145) and used as enzyme. As substrate for the kinase reaction the biotinylated peptide biotin-Ahx-IKKRKLTRRKSLKG (C-terminus in amide form) was used, which can be purchased e.g. from the company Biosyntan (Berlin-Buch, Germany).
For the assay 50 nL of a 100 fold concentrated solution of the test compound in DMSO was pipetted into a black low volume 384 well microtiter plate (Greiner Bio-One, Frickenhausen, Germany), 2 μL of a solution of MKNK1 in aqueous assay buffer [50 mM HEPES pH 7.5, 5 mM MgCl2, 1.0 mM dithiothreitol, 0.005% (v/v) Nonidet-P40 (Sigma)] was added and the mixture was incubated for 15 min at 22° C. to allow pre-binding of the test compounds to the enzyme before the start of the kinase reaction. Then the kinase reaction was started by the addition of 3 μL of a solution of adenosine-tri-phosphate (ATP, 3.3 mM=> final conc. in the 5 μL assay volume is 2 mM) and substrate (0.1 μM=> final conc. in the 5 μL assay volume is 0.06 μM) in assay buffer and the resulting mixture was incubated for a reaction time of 30 min at 22° C. The concentration of MKNK1 was adjusted depending of the activity of the enzyme lot and was chosen appropriate to have the assay in the linear range, typical concentrations were in the range of 0.003 μg/mL. The reaction was stopped by the addition of 5 μL of a solution of TR-FRET detection reagents (5 nM streptavidine-XL665 [Cisbio Bioassays, Codolet, France] and 1 nM anti-ribosomal protein S6 (pSer236)-antibody from Invitrogen [#44921G] and 1 nM LANCE EU-W1024 labeled ProteinG [Perkin-Elmer, product no. AD0071]) in an aqueous EDTA-solution (100 mM EDTA, 0.1% (w/v) bovine serum albumin in 50 mM HEPES pH 7.5).
The resulting mixture was incubated for 1 h at 22° C. to allow the formation of complex between the phosphorylated biotinylated peptide and the detection reagents. Subsequently the amount of phosphorylated substrate was evaluated by measurement of the resonance energy transfer from the Eu-chelate to the streptavidine-XL. Therefore, the fluorescence emissions at 620 nm and 665 nm after excitation at 350 nm were measured in a TR-FRET reader, e.g. a Rubystar (BMG Labtechnologies, Offenburg, Germany) or a Viewlux (Perkin-Elmer). The ratio of the emissions at 665 nm and at […] was taken as the measure for the amount of phosphorylated substrate. The data were normalised (enzyme reaction without inhibitor=0% inhibition, all other assay components but no enzyme=100% inhibition).

T1 sequence (Q9BUB5 1-424 isoform Q9BUB5-2 T344D): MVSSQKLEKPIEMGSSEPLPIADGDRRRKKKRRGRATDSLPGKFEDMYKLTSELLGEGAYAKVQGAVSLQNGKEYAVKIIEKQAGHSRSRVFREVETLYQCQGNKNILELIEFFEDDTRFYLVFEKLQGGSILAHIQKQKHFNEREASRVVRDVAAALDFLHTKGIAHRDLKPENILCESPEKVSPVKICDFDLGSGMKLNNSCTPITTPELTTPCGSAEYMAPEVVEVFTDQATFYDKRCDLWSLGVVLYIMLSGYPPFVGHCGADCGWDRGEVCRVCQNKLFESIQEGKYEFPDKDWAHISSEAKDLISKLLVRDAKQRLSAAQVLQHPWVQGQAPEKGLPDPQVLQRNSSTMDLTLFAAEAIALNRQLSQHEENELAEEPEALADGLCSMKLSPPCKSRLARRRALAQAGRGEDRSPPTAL

| Compound | IC50 [nM] |
| --- | --- |
| O=C(c1cc2c(Nc3cc4cn[nH]c4cn3)ncnc2[nH]1)N1CCOCC1 [Example 21, Morpholin-4-yl[4-(1H-pyrazolo[3,4-c]pyridin-5-ylamino)-7H-pyrrolo[2,3-d]pyrimidin-6-yl]methanone] | 4.2 |
| CN(C)CCNC(=O)c1cc2c(Nc3cc4cn[nH]c4cn3)ncnc2[nH]1 [Example 22, N-[2-(Dimethylamino)ethyl]-4-(1H-pyrazolo[3,4-c]pyridin-5-ylamino)-7H-pyrrolo[2,3-d]pyrimidine-6-carboxamide] | 5.4 |
| COc1nc2[nH]ncc2cc1Nc1ncnc2sc3c(c12)CC[C@H](C(=O)N1CCOCC1)C3 [Example 34] | 2.5 |
| COc1nc2[nH]ncc2cc1Nc1ncnc2sc3c(c12)CC[C@H](C(=O)N1CCC1)C3 [Example 35, Azetidin-1-yl{(7S)-4-[(6-methoxy-1H-pyrazolo[3,4-b]pyridin-5-yl)amino]-5,6,7,8-tetrahydro[1]benzothieno[2,3-d]pyrimidin-7-yl}methanone] | 2.2 |
| COc1nc2[nH]ncc2cc1Nc1ncnc2sc3c(c12)CC[C@H](C(=O)N1C[C@@H](C)O[C@@H](C)C1)C3 [Example 36, [(2R,6S)-2,6-Dimethylmorpholin-4-yl]{(7S)-4-[(6-methoxy-1H-pyrazolo[3,4-b]pyridin-5-yl)amino]-5,6,7,8-tetrahydro[1]benzothieno[2,3-d]pyrimidin-7-yl}methanone] | 0.8 |
| COc1nc2[nH]ncc2cc1Nc1ncnc2sc3c(c12)CC[C@H](C(=O)N(C)C(C)C)C3 [Example 37, (7S)-4-[(6-Methoxy-1H-pyrazolo[3,4-b]pyridin-5-yl)amino]-N-methyl-N-(propan-2-yl)-5,6,7,8-tetrahydro[1]benzothieno[2,3-d]pyrimidine-7-carboxamide] | 4.2 |
| CCCN(C)C(=O)[C@H]1CCc2c(sc3ncnc(Nc4cc5cn[nH]c5nc4OC)c23)C1 [Example 38, (7S)-4-[(6-Methoxy-1H-pyrazolo[3,4-b]pyridin-5-yl)amino]-N-methyl-N-propyl-5,6,7,8-tetrahydro[1]benzothieno[2,3-d]pyrimidine-7-carboxamide] | 1.4 |
| CCN(C)C(=O)[C@H]1CCc2c(sc3ncnc(Nc4cc5cn[nH]c5nc4OC)c23)C1 [Example 39, (7S)—N-Ethyl-4-[(6-methoxy-1H-pyrazolo[3,4-b]pyridin-5-yl)amino]-N-methyl-5,6,7,8-tetrahydro[1]benzothieno[2,3-d]pyrimidine-7-carboxamide] | 1 |
| COc1nc2[nH]ncc2cc1Nc1ncnc2sc3c(c12)CC[C@H](C(=O)N1C[C@@H]2C[C@H]1CO2)C3 [Example 40] | 2.5 |
| COc1nc2[nH]ncc2cc1Nc1ncnc2sc3c(c12)CC[C@H](C(=O)N1C[C@H]2C[C@@H]1CO2)C3 [Example 41] | 1.6 |
| COc1nc2[nH]ncc2cc1Nc1ncnc2sc3c(c12)CC[C@H](C(=O)N1CCN(C)CC1)C3 [Example 42] | 2.1 |
| COc1nc2[nH]ncc2cc1Nc1ncnc2sc3c(c12)CC[C@H](C(=O)N1CCC(N(C)C)CC1)C3 [Example 43, [4-(Dimethylamino)piperidin-1-yl]{(7S)-4-[(6-methoxy-1H-pyrazolo[3,4-b]pyridin-5-yl)amino]-5,6,7,8-tetrahydro[1]benzothieno[2,3-d]pyrimidin-7-yl}methanone] | 1.6 |
| COc1nc2[nH]ncc2cc1Nc1ncnc2sc3c(c12)CC[C@H](C(=O)N1CCOC[C@H]1C)C3 [Example 44] | 0.9 |
| COc1nc2[nH]ncc2cc1Nc1ncnc2sc3c(c12)CC[C@H](C(=O)N1CCOC[C@@H]1C)C3 [Example 45] | 0.7 |
| CCN(C(=O)[C@H]1CCc2c(sc3ncnc(Nc4cc5cn[nH]c5cn4)c23)C1)C(C)C [Example 46, (7S)—N-Ethyl-N-(propan-2-yl)-4-(1H-pyrazolo[3,4-c]pyridin-5-ylamino)-5,6,7,8-tetrahydro[1]benzothieno[2,3-d]pyrimidine-7-carboxamide] | 4.9 |
| CN(CC(C)(C)O)C(=O)[C@H]1CCc2c(sc3ncnc(Nc4cc5cn[nH]c5cn4)c23)C1 [Example 47, (7S)—N-(2-Hydroxy-2-methylpropyl)-N-methyl-4-(1H-pyrazolo[3,4-c]pyridin-5-ylamino)-5,6,7,8-tetrahydro[1]benzothieno[2,3-d]pyrimidine-7-carboxamide] | 11.1 |
| CN(CCC(F)(F)F)C(=O)[C@H]1CCc2c(sc3ncnc(Nc4cc5cn[nH]c5cn4)c23)C1 [Example 48, (7S)—N-Methyl-4-(1H-pyrazolo[3,4-c]pyridin-5-ylamino)-N-(3,3,3-trifluoropropyl)-5,6,7,8-tetrahydro[1]benzothieno[2,3-d]pyrimidine-7-carboxamide] | 6.2 |
| CCCN(CCOC)C(=O)[C@H]1CCc2c(sc3ncnc(Nc4cc5cn[nH]c5nc4OC)c23)C1 [Example 49, (7S)—N-(2-Methoxyethyl)-4-[(6-methoxy-1H-pyrazolo[3,4-b]pyridin-5-yl)amino]-N-propyl-5,6,7,8-tetrahydro[1]benzothieno[2,3-d]pyrimidine-7-carboxamide] | 0.3 |
| CCCN(CCOC)C(=O)[C@H]1CCc2c(sc3ncnc(Nc4cc5cn[nH]c5nc4O)c23)C1 [Example 50, (7S)-4-[(6-Hydroxy-1H-pyrazolo[3,4-b]pyridin-5-yl)amino]-N-(2-methoxyethyl)-N-propyl-5,6,7,8-tetrahydro[1]benzothieno[2,3-d]pyrimidine-7-carboxamide] | 2.6 |
| CCCCN(C)C(=O)[C@H]1CCc2c(sc3ncnc(Nc4cc5cn[nH]c5nc4OC)c23)C1 [Example 51, (7S)—N—Butyl-4-[(6-methoxy-1H-pyrazolo[3,4-b]pyridin-5-yl)amino]-N-methyl-5,6,7,8-tetrahydro[1]benzothieno[2,3-d]pyrimidine-7-carboxamide] | 0.5 |
| CCCCN(C)C(=O)[C@H]1CCc2c(sc3ncnc(Nc4cc5cn[nH]c5nc4O)c23)C1 [Example 52, (7S)—N-Butyl-4-[(6-hydroxy-1H-pyrazolo[3,4-b]pyridin-5-yl)amino]-N-methyl-5,6,7,8-tetrahydro[1]benzothieno[2,3-d]pyrimidine-7-carboxamide] | 6 |
| COc1nc2[nH]ncc2cc1Nc1ncnc2sc3c(c12)CC[C@H](C(=O)N(C)C)C3 [Example 53, (7S)-4-[(6-Methoxy-1H-pyrazolo[3,4-b]pyridin-5-yl)amino]-N,N-dimethyl-5,6,7,8-tetrahydro[1]benzothieno[2,3-d]pyrimidine-7-carboxamide] | 0.5 |
| CN(C)C(=O)[C@H]1CCc2c(sc3ncnc(Nc4cc5cn[nH]c5nc4O)c23)C1 [Example 54, (7S)-4-[(6-Hydroxy-1H-pyrazolo[3,4-b]pyridin-5-yl)amino]-N,N-dimethyl-5,6,7,8-tetrahydro[1]benzothieno[2,3-d]pyrimidine-7-carboxamide] | 6.9 |
| O=C([C@H]1CCc2c(sc3ncnc(Nc4cc5cn[nH]c5cn4)c23)C1)N1CCC1 [Example 55, Azetidin-1-yl[(7S)-4-(1H-pyrazolo[3,4-c]pyridin-5-ylamino)-5,6,7,8-tetrahydro[1]benzothieno[2,3-d]pyrimidin-7-yl]methanone] | 9.7 |
| COCCN(CCOC)C(=O)[C@H]1CCc2c(sc3ncnc(Nc4cc5cn[nH]c5cn4)c23)C1 [Example 56, (7S)—N, N-Bis(2-methoxyethyl)-4-(1H-pyrazolo[3,4-c]pyridin-5-ylamino)-5,6,7,8-tetrahydro[1]benzothieno[2,3-d]pyrimidine-7-carboxamide] | 8.1 |
| COCCN(C)C(=O)[C@H]1CCc2c(sc3ncnc(Nc4cc5cn[nH]c5cn4)c23)C1 [Example 57, (7S)—N-(2-Methoxyethyl)-N-methyl-4-(1H-pyrazolo[3,4-c]pyridin-5-ylamino)-5,6,7,8-tetrahydro[1]benzothieno[2,3-d]pyrimidine-7-carboxamide] | 15 |
| CCN(C)C(=O)[C@H]1CCc2c(sc3ncnc(Nc4cc5cn[nH]c5cn4)c23)C1 [Example 58, (7S)—N-Ethyl-N-methyl-4-(1H-pyrazolo[3,4-c]pyridin-5-ylamino)-5,6,7,8-tetrahydro[1]benzothieno[2,3-d]pyrimidine-7-carboxamide] | 17.3 |
